The source of these data is patent US9408925B2, “Hyperpolarized lactate contrast agent for determination of LDH activity” (GE Healthcare Limited, priority 2010, dated 2016).

Data set [1] is described as follows: T1 estimated from series of heteronuclear 13C/1H double echo spectra of hyperpolarized equimolar lactate mixture. In kind it is physicochemical. The conditions noted are these: 10 mM, multiple double echo spectra (FIG. 6). As for the experimental part: L-[1-^13C1] lactate was hyperpolarized using the DMSO preparation described in (Chen, A. P., et al. Feasibility of using hyperpolarized [1-C-13] lactate as a substrate for in vivo metabolic C-13 MRSI studies. Magnetic Resonance Imaging 26, 721-726 (2008)) with added Gd^3+. Briefly, 70 mg of a ˜50% w/w sodium L-[1-^13C1] lactate solution (0.31 mmol) (Sigma Aldrich, Gillingham, UK) is added to 27 mg DMSO (0.36 mmol) (Sigma Aldrich, Gillingham, UK), 2 mg OX 63 radical (1.4 μmol)(GE Healthcare) and 2.7 mg of a 50 mmol/L solution of Dotarem Gd^3+ chelate (Guerbet, Roissy, France). For in vitro experiments, one third of the resulting solution is polarised to the maximum at the optimal microwave frequency. Once the polarisation is at a maximum, the dissolution is performed with 6 mL of a 40 mmol/L Tris based buffer (pH=7.6) with added 100 mg/L EDTA. The final concentration of hyperpolarised L-[1-^13C1] lactate is then approximately 17 mmol/L. Acquisition of hetero-nuclear ^13C/^1H double echo spectra (TE=300 ms), with and without a 180° ^1H pulse, gave the spectra shown in FIG. 4.
An equimolar mixture of L-[1-^13C1] lactate and L-[1-^13C1, 2-^2H1] lactate was prepared and polarized to ˜26+/−0.5% (n=2). The final lactate concentration in the NMR tube was 10 mM.
Spectra were acquired with and without the 180° ^1H pulse. […]

The nature of data set [2]: 13C T1 and T2 relaxation of non-polarized lactate samples (10 mM) at 9.4 T. Type of data set: physicochemical. As for the experimental part: For FIG. 3, the samples contained 10 mM of either L-[1-^13C1, 2-^2H1] lactate or L-[1-^13C1] lactate (non-polarized). The T1 of the deuterated lactate was 55.8+/−2.2 s (n=1) and the T2 1.33+/−0.10 s (n=4) and the T1 of the C2 protonated lactate was 46.9+/−4.0 s (n=1) and the T2 1.49+/−0.13 s (n=2) (at 9.4 T). Heteronuclear ^13C/^1H double echo spectra were acquired using a 10 μs 90° ^13C pulse, a 5 ms adiabatic 180° ^13C pulse (bandwidth ˜2 kHz) and a 10 ms adiabatic ^1H pulse (bandwidth ˜1 kHz), which was centered on either the C2 or C3 lactate proton resonances (FIG. 2B). The TR was 20 s. Initial dummy scans produced a steady state z magnetization. The spectral bandwidth was 8 kHz and data were collected into 2048 complex points. Phase and amplitude corrected peak integrals for the lactate ^13C resonance were measured. The echo time is equivalent to 2τ.

`[2H][C@@](C)(O)[13C](=O)O` [L-[1-^13C1,2-^2H1] lactate, L-[1-^13C, 2-^2H] Lactate]: the “estimated T1” value in data set [1] is recorded as 27 s. In data set [2], this molecule had a T1 of 55.8 ± 2.2 s and a T2 of 1.33 ± 0.10 s.
Turning to `C[C@H](O)[13C](=O)[O-].[Na+]` [L-[1-^13C1] lactate, Sodium L-[1-^13C1] lactate], in data set [1], the “estimated T1” value was 25 s. In addition, in data set [2], the T1 was 46.9 ± 4.0 s and the T2 amounted to 1.49 ± 0.13 s.
